Where two headings read alike, the source gives them in different places.
Tests used:
Test in all cases: Off-target screening (CEREP)
Format in all cases: binding
Details in all cases: read-out: percent inhibition
Histamine H2 receptor = target: T1, Histamine H2 receptor (Homo sapiens, UniProt P25021)
T1 construct: purchased Eurofins CEREP SA
In short: (§1)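 Test compound was screened at 10 µM as a single-point measurement in duplicate. Values are percent inhibition of radioligand signal for binding assays or of control enzymatic activity for enzyme assays.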

Muscarinic receptor M1 = target: T2, Muscarinic receptor M1 (Homo sapiens, UniProt P11229)
T2 construct: purchased Eurofins CEREP SA
T2 sequence (P11229 1-460): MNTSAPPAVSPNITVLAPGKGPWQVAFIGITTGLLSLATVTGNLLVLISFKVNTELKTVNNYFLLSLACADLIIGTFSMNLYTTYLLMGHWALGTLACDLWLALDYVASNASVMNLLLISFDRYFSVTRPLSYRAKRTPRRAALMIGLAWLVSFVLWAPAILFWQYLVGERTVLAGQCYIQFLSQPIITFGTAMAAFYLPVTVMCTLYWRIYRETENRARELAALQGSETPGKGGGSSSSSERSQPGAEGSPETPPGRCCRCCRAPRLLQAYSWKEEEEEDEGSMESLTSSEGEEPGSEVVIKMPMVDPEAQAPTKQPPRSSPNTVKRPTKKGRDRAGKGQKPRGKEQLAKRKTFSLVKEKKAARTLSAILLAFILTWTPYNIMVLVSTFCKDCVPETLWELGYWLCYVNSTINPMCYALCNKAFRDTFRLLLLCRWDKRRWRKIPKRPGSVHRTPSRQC
In short: as §1

[1] = target: T3, Cholecystokinin 1 receptor (Homo sapiens, UniProt P32238)
T3 construct: purchased Eurofins CEREP SA
T3 sequence (P32238 1-428): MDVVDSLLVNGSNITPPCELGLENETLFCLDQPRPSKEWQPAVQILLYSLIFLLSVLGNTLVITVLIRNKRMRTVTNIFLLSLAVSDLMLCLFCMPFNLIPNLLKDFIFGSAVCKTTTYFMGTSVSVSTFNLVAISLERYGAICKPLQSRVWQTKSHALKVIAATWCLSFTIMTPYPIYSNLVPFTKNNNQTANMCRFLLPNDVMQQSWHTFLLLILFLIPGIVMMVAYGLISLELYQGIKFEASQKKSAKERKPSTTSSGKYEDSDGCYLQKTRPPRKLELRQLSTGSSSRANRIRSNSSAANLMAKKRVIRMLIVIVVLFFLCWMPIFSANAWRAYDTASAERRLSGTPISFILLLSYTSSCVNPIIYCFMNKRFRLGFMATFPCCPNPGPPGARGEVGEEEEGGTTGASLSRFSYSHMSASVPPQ
In short: as §1

5HT3 = target: T4, 5HT3 (Homo sapiens, UniProt P46098)
T4 construct: purchased Eurofins CEREP SA
T4 sequence (P46098 24-478): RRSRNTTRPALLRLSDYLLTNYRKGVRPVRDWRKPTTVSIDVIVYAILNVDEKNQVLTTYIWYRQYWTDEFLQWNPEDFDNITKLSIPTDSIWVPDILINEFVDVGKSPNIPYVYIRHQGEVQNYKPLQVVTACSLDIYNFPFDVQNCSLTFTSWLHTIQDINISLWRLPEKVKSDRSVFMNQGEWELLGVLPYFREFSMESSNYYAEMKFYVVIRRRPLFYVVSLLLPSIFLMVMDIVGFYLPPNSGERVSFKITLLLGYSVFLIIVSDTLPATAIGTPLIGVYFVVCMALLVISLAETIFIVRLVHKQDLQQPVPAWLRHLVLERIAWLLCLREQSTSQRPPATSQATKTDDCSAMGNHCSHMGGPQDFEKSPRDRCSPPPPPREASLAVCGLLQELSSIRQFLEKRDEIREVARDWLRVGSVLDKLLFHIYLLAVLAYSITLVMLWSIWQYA
In short: as §1

Androgen receptor = target: T5, Androgen receptor (Homo sapiens, UniProt P10275)
T5 construct: purchased Eurofins CEREP SA
T5 sequence (P10275 1-920): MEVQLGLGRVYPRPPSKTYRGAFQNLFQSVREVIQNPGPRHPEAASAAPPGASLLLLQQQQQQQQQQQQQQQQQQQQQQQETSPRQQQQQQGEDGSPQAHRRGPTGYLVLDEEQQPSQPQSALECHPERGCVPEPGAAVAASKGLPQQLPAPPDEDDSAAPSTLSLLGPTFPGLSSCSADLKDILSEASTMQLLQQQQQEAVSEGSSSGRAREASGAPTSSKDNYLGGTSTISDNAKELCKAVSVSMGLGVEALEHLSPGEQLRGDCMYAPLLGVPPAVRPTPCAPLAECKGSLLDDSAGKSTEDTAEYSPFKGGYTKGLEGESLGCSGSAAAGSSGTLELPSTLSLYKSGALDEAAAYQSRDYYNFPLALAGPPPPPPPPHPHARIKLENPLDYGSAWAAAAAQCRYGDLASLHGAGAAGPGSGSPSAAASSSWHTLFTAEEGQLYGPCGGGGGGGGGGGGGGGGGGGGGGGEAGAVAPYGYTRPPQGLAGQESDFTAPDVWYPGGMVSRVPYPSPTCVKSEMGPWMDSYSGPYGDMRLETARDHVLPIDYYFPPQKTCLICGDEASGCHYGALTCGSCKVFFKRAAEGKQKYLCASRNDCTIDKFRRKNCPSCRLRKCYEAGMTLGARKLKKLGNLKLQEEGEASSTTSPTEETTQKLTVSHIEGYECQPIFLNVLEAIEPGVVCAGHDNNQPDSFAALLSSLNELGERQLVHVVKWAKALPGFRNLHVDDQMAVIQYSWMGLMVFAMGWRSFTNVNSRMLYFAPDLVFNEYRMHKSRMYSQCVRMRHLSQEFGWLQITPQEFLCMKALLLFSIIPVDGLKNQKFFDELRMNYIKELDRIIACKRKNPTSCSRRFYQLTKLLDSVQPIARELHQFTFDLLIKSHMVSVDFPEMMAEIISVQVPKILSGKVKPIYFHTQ
In short: as §1

5HT2A = target: T6, 5HT2A (Homo sapiens, UniProt P28223)
T6 construct: purchased Eurofins CEREP SA
In short: as §1

5-HT transporter = target: T7, 5-HT transporter (Homo sapiens, UniProt P31645)
T7 construct: purchased Eurofins CEREP SA
In short: as §1

Dopamine D2 receptor = target: T8, Dopamine D2 receptor (Homo sapiens, UniProt P14416)
T8 construct: purchased Eurofins CEREP SA
In short: as §1

T8 sequence (P14416 whole entry): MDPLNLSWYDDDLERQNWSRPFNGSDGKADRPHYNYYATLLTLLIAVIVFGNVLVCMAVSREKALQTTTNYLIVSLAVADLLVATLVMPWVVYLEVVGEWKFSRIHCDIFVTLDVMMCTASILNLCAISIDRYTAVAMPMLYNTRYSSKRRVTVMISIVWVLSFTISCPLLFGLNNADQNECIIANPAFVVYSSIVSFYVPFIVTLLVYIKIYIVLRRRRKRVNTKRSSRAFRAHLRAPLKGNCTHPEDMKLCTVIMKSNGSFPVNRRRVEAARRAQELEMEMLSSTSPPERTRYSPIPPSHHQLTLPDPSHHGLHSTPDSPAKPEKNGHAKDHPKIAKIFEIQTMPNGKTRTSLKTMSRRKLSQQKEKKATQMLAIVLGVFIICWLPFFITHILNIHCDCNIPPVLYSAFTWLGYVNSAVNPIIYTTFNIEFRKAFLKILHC
T6 sequence (P28223 whole entry): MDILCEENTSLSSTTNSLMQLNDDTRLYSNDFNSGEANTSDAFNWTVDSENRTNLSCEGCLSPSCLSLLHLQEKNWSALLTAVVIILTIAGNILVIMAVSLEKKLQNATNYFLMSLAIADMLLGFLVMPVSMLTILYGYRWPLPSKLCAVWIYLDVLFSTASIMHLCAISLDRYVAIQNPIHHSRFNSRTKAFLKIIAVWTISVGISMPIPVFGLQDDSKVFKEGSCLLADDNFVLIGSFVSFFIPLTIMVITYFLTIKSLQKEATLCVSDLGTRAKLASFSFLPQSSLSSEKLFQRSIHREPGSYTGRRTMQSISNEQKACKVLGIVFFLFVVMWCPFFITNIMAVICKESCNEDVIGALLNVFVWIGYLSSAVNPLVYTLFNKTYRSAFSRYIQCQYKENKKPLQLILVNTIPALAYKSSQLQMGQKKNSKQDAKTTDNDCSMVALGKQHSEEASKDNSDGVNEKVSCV
T7 sequence (P31645 whole entry): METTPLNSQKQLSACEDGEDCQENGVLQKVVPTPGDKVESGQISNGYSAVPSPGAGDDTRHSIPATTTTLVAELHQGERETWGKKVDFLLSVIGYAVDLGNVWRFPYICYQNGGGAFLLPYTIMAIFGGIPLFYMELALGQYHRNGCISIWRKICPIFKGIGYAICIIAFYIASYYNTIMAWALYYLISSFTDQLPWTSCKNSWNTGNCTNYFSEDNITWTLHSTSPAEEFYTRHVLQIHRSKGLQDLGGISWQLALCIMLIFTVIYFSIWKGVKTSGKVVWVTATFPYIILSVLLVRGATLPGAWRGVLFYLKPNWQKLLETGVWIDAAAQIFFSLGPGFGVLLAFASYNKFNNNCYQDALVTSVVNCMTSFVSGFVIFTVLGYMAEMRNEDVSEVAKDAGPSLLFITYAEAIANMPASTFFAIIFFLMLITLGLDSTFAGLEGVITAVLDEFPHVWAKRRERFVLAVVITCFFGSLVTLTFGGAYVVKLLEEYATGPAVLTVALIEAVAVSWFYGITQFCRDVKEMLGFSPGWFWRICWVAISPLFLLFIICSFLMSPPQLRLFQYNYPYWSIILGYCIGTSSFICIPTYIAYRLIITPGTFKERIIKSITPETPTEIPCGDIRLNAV
T1 sequence (P25021 whole entry): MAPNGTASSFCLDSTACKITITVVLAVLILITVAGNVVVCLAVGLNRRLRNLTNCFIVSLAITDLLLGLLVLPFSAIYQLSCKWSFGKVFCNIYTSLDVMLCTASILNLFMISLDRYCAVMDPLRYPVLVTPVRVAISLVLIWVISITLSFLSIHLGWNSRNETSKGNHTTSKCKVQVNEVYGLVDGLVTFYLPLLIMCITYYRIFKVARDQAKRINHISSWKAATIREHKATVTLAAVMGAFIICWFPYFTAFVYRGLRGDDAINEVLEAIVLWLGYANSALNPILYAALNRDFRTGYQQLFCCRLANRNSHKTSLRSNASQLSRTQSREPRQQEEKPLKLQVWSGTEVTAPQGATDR

SMILES	inhibition at 10 µM (Histamine H2 receptor; 10 µM, duplicates)	inhibition at 10 µM (Muscarinic receptor M1; 10 µM, duplicates)	inhibition at 10 µM ([1]; 10 µM, duplicates)	inhibition at 10 µM (5HT3; 10 µM, duplicates)	inhibition at 10 µM (Androgen receptor; 10 µM, duplicates)	inhibition at 10 µM (5HT2A; 10 µM, duplicates)	inhibition at 10 µM (5-HT transporter; 10 µM, duplicates)	inhibition at 10 µM (Dopamine D2 receptor; 10 µM, duplicates)	inhibition at 10 µM (Histamine H2 receptor)	inhibition at 10 µM (Muscarinic receptor M1)	inhibition at 10 µM [1]	inhibition at 10 µM (5HT3)	inhibition at 10 µM (Androgen receptor)	inhibition at 10 µM (5HT2A)	inhibition at 10 µM (5-HT transporter)	inhibition at 10 µM (Dopamine D2 receptor)
CN1C(=O)[C@H](CCCN)NC(=O)[C@H](CCCN)NCc2ccccc2Sc2ccccc2CNC(=O)[C@@H]1Cc1c[nH]c2ccccc12 [RO7036668]	12%	26%	22%	6%	6%	-2%	13%	74%	–	–	–	–	–	–	–	–
CN1C(=O)[C@H](CCCCN)NC(=O)[C@H](CCCN)NCc2cccnc2Sc2c(Cl)ccc(Cl)c2CNC(=O)[C@@H]1Cc1c[nH]c2ccccc12 [RO7075573]	–	–	–	–	–	–	–	–	11%	20%	32%	8%	-4%	-17%	16%	28%
CN1C(=O)[C@H](CCCCN)NC(=O)[C@H](CCCN)NCc2cccnc2Sc2c(Cl)ccc(-c3ccc(C(=O)O)cc3)c2CNC(=O)[C@@H]1Cc1c[nH]c2ccccc12 [RO7202110]	3%	-6%	0%	6%	3%	4%	13%	28%	–	–	–	–	–	–	–	–
CN1C(=O)[C@H](CCCCN)NC(=O)[C@H](CCCN)NCc2cccnc2Sc2cccc(-c3ccc(C(=O)O)cc3)c2CNC(=O)[C@@H]1Cc1c[nH]c2ccccc12 [zosurabalpin]	–	–	–	–	–	–	–	–	-2%	-3%	-1%	3%	-5%	3%	2%	14%

Source: PMC10794144, “A novel antibiotic class targeting the lipopolysaccharide transporter” (Nature, 2024)
